# Tested on: Herpes Zoster (varicella zoster virus)
# Test: Valaciclovir prophylaxis against HZ activation in patients receiving CellProtect infusions
# Assay type: in vivo, human
# Conditions: 500 mg twice daily for 6 months following infusions; patients 110 and 111; within 12 months following prophylaxis
# Protocol: Since the development of HZ was clearly associated with the NK cell infusions in the first four patients the last two patients (110 and 111) were treated with high dose valaciclovir, 500 mg twice daily for 6 months following the infusions.
structure (smiles),measurement,value
CC(C)[C@H](N)C(=O)OCCOCn1cnc2c(=O)[nH]c(N)nc21 [valaciclovir],Signs of HZ activation,did not show any signs of HZ activation

# — patent US20210186977A1, “MEDICAL USES” (priority 2018, published 2021)
